# Experimental data from patent publication US20080227688A1, “Inhibition of viral replication” (priority 2007, published 2008).
# Test system: reovirus
# Type: cell-based, Dearing strain of reovirus serotype 3
compound,measurement,value
"C[C@H](NC(=O)[C@H](Cc1ccccc1)NC(=O)OCc1ccccc1)C(=O)CF [Z-FA-FMK, N-benzyloxycarbonyl-Phe-Ala-fluoromethylketone]","cure of persistent reovirus infection (western blot, reovirus antiserum)",cured persistently infected cells
